How the values were obtained:
Homo sapiens = organism: Homo sapiens; assay: Selectivity index, ratio of IC50 for human recombinant MAOB to IC50 for human recombinant MAOA
[1] = target: T1, Amine oxidase [flavin-containing] A (Homo sapiens, UniProt P21397); assay: Inhibition of human recombinant MAOA using kynuramine as substrate incubated for 10 mins by UPLC-ESI-MS/MS analysis
T1 sequence (P21397 whole entry): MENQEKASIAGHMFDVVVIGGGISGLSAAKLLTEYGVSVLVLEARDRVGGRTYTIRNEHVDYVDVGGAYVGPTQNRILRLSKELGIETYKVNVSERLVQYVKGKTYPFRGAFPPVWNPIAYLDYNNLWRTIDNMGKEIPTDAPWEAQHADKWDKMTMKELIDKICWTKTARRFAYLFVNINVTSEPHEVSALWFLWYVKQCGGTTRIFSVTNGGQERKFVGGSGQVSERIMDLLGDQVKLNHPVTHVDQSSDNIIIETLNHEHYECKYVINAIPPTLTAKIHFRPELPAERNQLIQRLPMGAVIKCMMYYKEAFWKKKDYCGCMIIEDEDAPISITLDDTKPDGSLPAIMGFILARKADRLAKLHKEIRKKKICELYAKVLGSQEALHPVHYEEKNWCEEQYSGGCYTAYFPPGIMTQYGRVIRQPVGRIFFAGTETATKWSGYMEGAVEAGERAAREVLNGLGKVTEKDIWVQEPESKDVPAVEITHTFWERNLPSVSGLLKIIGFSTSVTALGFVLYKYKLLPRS

[2] = target: T2, Amine oxidase [flavin-containing] B (Homo sapiens, UniProt P27338); assay: Inhibition of human recombinant MAOB using kynuramine as substrate incubated for 10 mins by UPLC-ESI-MS/MS analysis
T2 sequence (P27338 whole entry): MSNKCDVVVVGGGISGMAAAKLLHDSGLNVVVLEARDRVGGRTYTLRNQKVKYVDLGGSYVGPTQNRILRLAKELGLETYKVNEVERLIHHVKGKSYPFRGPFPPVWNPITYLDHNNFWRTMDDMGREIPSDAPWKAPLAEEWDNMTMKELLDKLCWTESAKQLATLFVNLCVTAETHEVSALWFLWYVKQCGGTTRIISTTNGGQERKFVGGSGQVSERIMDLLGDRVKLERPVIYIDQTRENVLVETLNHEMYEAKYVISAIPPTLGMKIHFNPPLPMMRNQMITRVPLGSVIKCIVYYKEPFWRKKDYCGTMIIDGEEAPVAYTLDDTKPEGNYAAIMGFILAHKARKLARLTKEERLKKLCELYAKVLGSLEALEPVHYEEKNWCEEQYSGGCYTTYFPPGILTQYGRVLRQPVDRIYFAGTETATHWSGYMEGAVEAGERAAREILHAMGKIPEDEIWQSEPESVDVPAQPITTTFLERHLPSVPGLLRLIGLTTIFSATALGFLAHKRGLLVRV

[3] = target: T1, Amine oxidase [flavin-containing] A; assay: Inhibition of human recombinant MAOA using kynuramine as substrate incubated for 10 mins by UPLC-ESI-MS/MS analysis based Eadie-Hofstee plot analysis
[4] = target: T1, Amine oxidase [flavin-containing] A; assay: Inhibition of human recombinant MAOA using kynuramine as substrate incubated for 10 mins by UPLC-ESI-MS/MS analysis based Michaelis-Menten plot kinetic analysis
[5] = target: T1, Amine oxidase [flavin-containing] A; assay: Tight-binding competitive inhibition of human recombinant MAOA using kynuramine as substrate incubated for 10 mins by UPLC-ESI-MS/MS analysis based Lineweaver-Burk plot kinetic analysis
Monoamine oxidase = target: T3, Monoamine oxidase (Mus musculus, UniProt Q8BW75+Q64133); assay: Inhibition of mouse brain monoamine oxidase
T3 sequence (Q8BW75 whole entry): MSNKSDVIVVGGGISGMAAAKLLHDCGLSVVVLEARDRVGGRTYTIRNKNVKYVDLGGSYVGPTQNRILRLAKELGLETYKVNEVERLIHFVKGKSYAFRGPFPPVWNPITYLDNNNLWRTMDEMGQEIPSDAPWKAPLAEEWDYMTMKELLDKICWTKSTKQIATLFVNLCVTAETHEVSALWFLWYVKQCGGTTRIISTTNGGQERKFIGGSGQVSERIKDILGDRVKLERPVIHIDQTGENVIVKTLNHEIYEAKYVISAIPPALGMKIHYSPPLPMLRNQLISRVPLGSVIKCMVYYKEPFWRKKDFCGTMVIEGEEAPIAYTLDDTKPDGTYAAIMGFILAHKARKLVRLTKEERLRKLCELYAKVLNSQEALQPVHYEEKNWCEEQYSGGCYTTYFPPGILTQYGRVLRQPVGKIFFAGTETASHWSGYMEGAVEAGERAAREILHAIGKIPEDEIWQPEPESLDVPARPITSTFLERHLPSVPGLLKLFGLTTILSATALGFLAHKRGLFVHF
T3 sequence (Q64133 whole entry): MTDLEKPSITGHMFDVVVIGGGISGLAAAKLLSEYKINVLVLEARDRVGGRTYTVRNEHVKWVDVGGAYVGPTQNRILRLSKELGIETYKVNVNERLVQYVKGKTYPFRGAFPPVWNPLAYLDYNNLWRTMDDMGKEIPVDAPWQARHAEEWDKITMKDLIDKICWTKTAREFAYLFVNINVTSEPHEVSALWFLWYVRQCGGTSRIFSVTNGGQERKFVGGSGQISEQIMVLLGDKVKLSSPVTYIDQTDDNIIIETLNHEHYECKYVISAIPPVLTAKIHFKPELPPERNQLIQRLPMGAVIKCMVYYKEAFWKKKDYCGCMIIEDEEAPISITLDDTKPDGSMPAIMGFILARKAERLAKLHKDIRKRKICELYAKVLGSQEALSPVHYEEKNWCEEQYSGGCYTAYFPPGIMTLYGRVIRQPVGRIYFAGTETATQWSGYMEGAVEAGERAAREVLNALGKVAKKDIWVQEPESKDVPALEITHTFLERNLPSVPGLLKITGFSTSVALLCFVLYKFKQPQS

Ratio IC50 (Homo sapiens)	IC50 [1] [µM]	IC50 [2] [µM]	inhibition (INH) [3]	inhibition (INH) [4]	inhibition (INH) [5]	IC50 (Monoamine oxidase) [µM]	SMILES
> 3.1	15.8	> 50	–	–	–	–	Cc1cc([N+](=O)[O-])c(O)c2c1C[C@@H](C)OC2=O
–	> 50	> 50	–	–	–	–	Cc1cc(C(=O)O)c(O)c2c1C[C@@H](C)OC2=O
> 1.7	28.6	> 50	–	–	–	–	Cc1cc(Br)c(O)c2c1C[C@@H](C)OC2=O
–	> 50	> 50	–	–	–	–	C=CC(=O)Nc1cc(C)c2c(c1O)C(=O)O[C@H](C)C2
> 22	2.2	> 50	–	–	–	–	Cc1cc(Cl)c(O)c2c1C[C@@H](C)OC2=O
> 3.6	13.6	> 50	–	–	–	–	Cc1cc(N(C)C)c(O)c2c1C[C@@H](C)OC2=O
> 13	3.8	> 50	–	–	–	–	Cc1cc(C)c2c(c1O)C(=O)O[C@H](C)C2
> 3.1	15.9	> 50	–	–	–	–	Cc1cc(I)c(O)c2c1C[C@@H](C)OC2=O
> 2.6	19.2	> 50	–	–	–	–	Cc1cc(CO)c(O)c2c1C[C@@H](C)OC2=O
> 11	4.1	> 50	–	–	–	–	Cc1cc(N)c(O)c2c1C[C@@H](C)OC2=O
> 2.7	18.3	> 50	–	–	–	–	CCCCc1cc(C)c2c(c1O)C(=O)O[C@H](C)C2
–	> 50	> 50	–	–	–	–	Cc1cc(C(=O)N(C)C)c(O)c2c1C[C@@H](C)OC2=O
> 17	2.9	> 50	–	–	–	–	CCc1cc(C)c2c(c1O)C(=O)O[C@H](C)C2
–	> 50	> 50	–	–	–	–	Cc1cc(C#N)c(O)c2c1C[C@@H](C)OC2=O
> 11	4.5	> 50	–	–	–	–	CCCc1cc(C)c2c(c1O)C(=O)O[C@H](C)C2

Further lines, the compound ahead of its results:

SMILES	Ratio IC50 (Homo sapiens)	IC50 [1] [µM]	IC50 [2] [µM]	inhibition (INH) [3]	inhibition (INH) [4]	inhibition (INH) [5]	IC50 (Monoamine oxidase) [µM]
Cc1cc(-c2ccccn2)c(O)c2c1C[C@@H](C)OC2=O	> 24	2.1	> 50	–	–	–	–
Cc1cc(-c2cccnc2)c(O)c2c1C[C@@H](C)OC2=O	> 250	0.2	> 50	Active	Active	Active	–
Cc1cc(-c2cncnc2)c(O)c2c1C[C@@H](C)OC2=O	> 350	0.14	> 50	Active	Active	Active	–
Cc1cc(-c2ccc(O)cc2)c(O)c2c1C[C@@H](C)OC2=O	38	1.1	38.9	–	–	–	–
COc1ccc(C)c2c1C(=O)O[C@H](C)C2	–	> 50	> 50	–	–	–	–
COc1ccc(C)c2c1C(=O)O[C@@H](C)C2	–	> 50	> 50	–	–	–	–
C[C@@H]1Cc2c(O)ccc(O)c2C(=O)O1	> 2.9	17.1	> 50	–	–	–	–
COc1cccc2c1C(=O)O[C@H](C)C2	–	> 50	> 50	–	–	–	–
Cc1ccc(O)c2c1C[C@@H](C)OC2=O	8.3	4.6	38.5	–	–	–	1.06
Cc1cc(C(=O)N2CCN(C)CC2)c(O)c2c1C[C@@H](C)OC2=O	–	> 50	> 50	–	–	–	–
C[C@@H]1Cc2c(C(=O)O)ccc(O)c2C(=O)O1	–	> 50	> 50	–	–	–	–
Cc1cc(-c2ccncc2)c(O)c2c1C[C@@H](C)OC2=O	> 18	2.7	> 50	–	–	–	–
Cc1cc(-c2cccc([N+](=O)[O-])c2)c(O)c2c1C[C@@H](C)OC2=O	> 17	3	> 50	–	–	–	–
Cc1cc2cccc(O)c2c(=O)o1	> 2	23.4	> 50	–	–	–	–
Cc1ccc(O)c2c1CCOC2=O	1.7	3.2	5.5	–	–	–	–
Cc1ccc(-c2cc(C)c3c(c2O)C(=O)O[C@H](C)C3)cc1	0.3	12.4	4.1	–	–	–	–

SMILES	Ratio IC50 (Homo sapiens)	IC50 [1] [µM]	IC50 [2] [µM]	inhibition (INH) [3]	inhibition (INH) [4]	inhibition (INH) [5]	IC50 (Monoamine oxidase) [µM]
CCc1ccc(O)c2c1C[C@@H](C)OC2=O	< 0.3	> 50	16.1	–	–	–	–
CC[C@@H]1Cc2c(C)ccc(O)c2C(=O)O1	> 6.2	8	> 50	–	–	–	–
C[C@H]1Cc2cccc(O)c2C(=O)O1	3.2	7.5	24	–	–	–	–
Cc1cc(-c2cccc(N)c2)c(O)c2c1C[C@@H](C)OC2=O	> 250	0.2	> 50	Active	Active	Active	–
Cc1cc(C(=O)NCCN2CCOCC2)c(O)c2c1C[C@@H](C)OC2=O	–	> 50	> 50	–	–	–	–
C[C@@H]1Cc2c(CO)ccc(O)c2C(=O)O1	–	> 50	> 50	–	–	–	–
CCN(CC)C(=O)c1cc(C)c2c(c1O)C(=O)O[C@H](C)C2	–	> 50	> 50	–	–	–	–
Cc1cc(-c2ccccc2)c(O)c2c1C[C@@H](C)OC2=O	0.1	10.5	1	–	–	–	–
Cc1cc(-c2ccc(C(F)(F)F)cc2)c(O)c2c1C[C@@H](C)OC2=O	0.1	13.7	1	–	–	–	–
COc1ccc(NCc2cc(C)c3c(c2O)C(=O)O[C@H](C)C3)cc1	> 11	4.4	> 50	–	–	–	–
Cc1ccc(O)c2c1CC(C)(C)OC2=O	–	> 50	> 50	–	–	–	–
Cc1ccc(O)c2c1C[C@H](C)OC2=O	10	4.1	40.9	–	–	–	–
C[C@@H]1Cc2cccc(O)c2C(=O)O1 [(-)-(R)-MELLEIN]	8.1	6.2	50	–	–	–	–
CC[C@@H]1Cc2c(C)cc(-c3ccc(N)cc3)c(O)c2C(=O)O1	> 167	0.3	> 50	–	–	–	–
Cc1cc(C(=O)N2CCOCC2)c(O)c2c1C[C@@H](C)OC2=O	–	> 50	> 50	–	–	–	–
Cc1cc(-c2ccc(N)cc2)c(O)c2c1C[C@@H](C)OC2=O	26	0.8	21	–	–	–	–
